The text below walks through data of publication PMC6893645, “Baicalein as a Potential Inhibitor against BACE1 and AChE: Mechanistic Comprehension through In Vitro and Computational Approaches” (Nutrients, 2019).

Details of data set [1]: method as in doi:10.1016/j.arabjc.2017.08.002. Conditions: chemical scavenging and cellular antioxidant ability among flavonoids of S. baicalensis; cited from earlier work.
The subject of a further data set is BACE1. More on the design: method as in PMID 24291393. Conditions: cited from earlier work.
A further data set has as its system trypsin. Description: Trypsin colorimetric assay. The conditions noted are these: for Inhibitory activity against Trypsin: mean ± SD. Format: biochemical. The protocol: (§1) The colorimetric assays of AChE, trypsin, chymotrypsin, and elastase were carried out using acetylthiocholine iodide, […], and N-succinyl-Ala-Ala-Ala-pNA as substrates, respectively. The hydrolysis of AChE was monitored according to the formation of yellow 5-thio-2-nitrobenzoate anions at 405 nm for 15 min, which were produced by the reaction of DTNB with thiocholine released from ACh. All reactions were performed in 96-well plates in triplicate and recorded using a microplate spectrophotometer.
(§2) For trypsin, chymotrypsin, and elastase assays, enzyme, Tris-HCl buffer (0.05 M, in 0.02 M CaCl2, pH 8.2), and baicalein were incubated for 10 min at 25 °C; then, substrate was added for 30 min at 37 °C. The absorbance was recorded at 410 nm. The inhibition ratio was obtained using the following equation:Inhibition (%) = {[1 − (A − B)]/control} × 100 where A was the absorbance of the control (enzyme, assay buffer, and substrate) after 60 min of incubation, and B was the absorbance of tested sample (assay buffer and sample solution) after 60 min of incubation.

For data set [2] the following is noted: humans, 2.8 mg single dose; cited from earlier work.
A further data set relates to APP/PS1 mice. Conditions: 80 mg/kg; cited from earlier work.
For data set [3] the following is noted: cited from earlier work.
The target of another data set is T1, chymotrypsin (Bos taurus, UniProt P00766).
T1 construct: purchased Sigma-Aldrich (St. Louis, MO, USA)
Description: Chymotrypsin colorimetric assay. Type of data set: biochemical. As to the method: as §1, §2

Another data set has as its system Tg2576 mice. On the set-up: method as in PMID 23686791. The conditions noted are these: 10 mg/kg; cited from earlier work.
The target of the next data set is AChE (Electrophorus electricus, UniProt O42275). Conditions: Dixon and Lineweaver–Burk plots.
Chain of AChE (O42275 24-633): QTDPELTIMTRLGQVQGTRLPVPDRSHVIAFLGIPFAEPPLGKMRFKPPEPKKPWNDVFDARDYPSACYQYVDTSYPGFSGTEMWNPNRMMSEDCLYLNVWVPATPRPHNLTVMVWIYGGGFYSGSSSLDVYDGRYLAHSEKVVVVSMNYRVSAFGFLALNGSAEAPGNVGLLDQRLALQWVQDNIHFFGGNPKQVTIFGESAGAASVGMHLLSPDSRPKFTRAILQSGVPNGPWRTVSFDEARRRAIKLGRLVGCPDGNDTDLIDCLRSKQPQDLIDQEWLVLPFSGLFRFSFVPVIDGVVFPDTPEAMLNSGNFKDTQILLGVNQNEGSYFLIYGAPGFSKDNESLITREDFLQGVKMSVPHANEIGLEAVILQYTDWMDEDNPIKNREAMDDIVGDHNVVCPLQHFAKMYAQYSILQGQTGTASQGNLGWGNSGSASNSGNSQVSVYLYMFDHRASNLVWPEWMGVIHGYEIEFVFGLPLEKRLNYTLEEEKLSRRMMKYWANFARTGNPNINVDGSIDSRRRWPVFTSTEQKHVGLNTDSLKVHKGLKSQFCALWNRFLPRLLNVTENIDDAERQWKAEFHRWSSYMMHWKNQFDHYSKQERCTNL
The conditions of data set [4]: rat, oral S. baicalensis extract 30 mg/kg; cited from earlier work.
The test system of data set [5] is AlCl3-induced AD mouse model. Conditions: cited from earlier work.
For a further data set, the target named is T2, elastase (Sus scrofa, UniProt P00772).
T2 construct: purchased Sigma-Aldrich (St. Louis, MO, USA)
T2 sequence (P00772 27-266): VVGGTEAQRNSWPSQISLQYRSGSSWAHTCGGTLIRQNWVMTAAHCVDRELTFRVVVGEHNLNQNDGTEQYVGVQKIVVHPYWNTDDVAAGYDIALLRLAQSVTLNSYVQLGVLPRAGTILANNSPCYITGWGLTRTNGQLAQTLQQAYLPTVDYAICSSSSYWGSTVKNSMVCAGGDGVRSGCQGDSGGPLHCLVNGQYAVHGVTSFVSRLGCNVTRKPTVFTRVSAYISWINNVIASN
Description: Elastase colorimetric assay. Format: biochemical. The protocol:
as §1, §2

Another data set deals with T3, human recombinant TACE (Homo sapiens, UniProt P78536).
T3 construct: purchased R&D Systems (Minneapolis, MN, USA)
T3 sequence (P78536 215-824): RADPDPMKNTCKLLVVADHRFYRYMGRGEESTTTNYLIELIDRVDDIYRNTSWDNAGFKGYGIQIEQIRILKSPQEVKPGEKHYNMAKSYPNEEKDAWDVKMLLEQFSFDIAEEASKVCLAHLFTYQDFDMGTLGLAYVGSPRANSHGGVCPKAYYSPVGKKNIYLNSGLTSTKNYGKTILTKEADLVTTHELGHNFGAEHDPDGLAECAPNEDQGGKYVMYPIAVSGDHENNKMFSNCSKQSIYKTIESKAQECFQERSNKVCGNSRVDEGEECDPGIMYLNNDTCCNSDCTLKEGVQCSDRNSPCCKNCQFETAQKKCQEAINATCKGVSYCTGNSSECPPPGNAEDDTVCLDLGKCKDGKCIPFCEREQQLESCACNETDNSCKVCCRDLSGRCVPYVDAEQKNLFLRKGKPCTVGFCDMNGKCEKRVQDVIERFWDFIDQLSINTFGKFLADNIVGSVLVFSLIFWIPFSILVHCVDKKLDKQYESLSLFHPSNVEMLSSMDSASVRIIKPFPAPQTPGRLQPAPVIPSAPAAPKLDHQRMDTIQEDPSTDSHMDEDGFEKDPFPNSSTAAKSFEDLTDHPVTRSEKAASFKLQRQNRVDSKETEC
Description: TACE fluorometric assay. Type of data set: biochemical. The protocol:
A human recombinant TACE (0.1 ppm in 25 mM Tris buffer), the substrate (APP peptide […] using EDANS/DABCYL), and baicalein were dissolved in an assay buffer and then combined and incubated for 60 min in the dark at 25 °C.

Description for AChE: The colorimetric assays of AChE, trypsin, chymotrypsin, and elastase were carried out using acetylthiocholine iodide, N-benzoyl-L-Tyr-pNA, N-benzoyl-L-Arg-pNA, and N-succinyl-Ala-Ala-Ala-pNA as substrates, respectively. […] All reactions were performed in 96-well plates in triplicate and recorded using a microplate spectrophotometer.
The inhibitory constant (Ki) was obtained by interpretation of the Dixon plot, and maximum reaction velocity (Vmax) and Michaelis–Menten constant (Km) values were determined by a Lineweaver–Burk plot, using the initial velocities obtained over a different substrate concentration ranges.

For the compound `O=c1cc(-c2ccccc2)oc2cc(O)cc(O)c12` [Chrysin, reference compound], in data set [1], the Antioxidant ability result is given as “much weaker antioxidant ability”.
On to `O=c1cc(-c2ccc(O)cc2)oc2cc(O)cc(O)c12` [Apigenin, 4′,5,7-trihydroxyflavone], for which the IC50 (as a rule, the concentration at which inhibition is half-maximal) with BACE1 was above 100 µM.
Turning to `O=c1cc(-c2ccccc2)oc2cc(O)c(O)c(O)c12` [Baicalein, 5,6,7-trihydroxyflavone], the “Inhibitory activity against Trypsin” value in the data set on trypsin (baicalein 50 μM) was 3.40 ± 0.76%; in the data set with trypsin (baicalein 100 μM) it was −6.95 ± 0.87%. In addition, in the data set on trypsin (up to 100 µM), the “Inhibitory activity against trypsin (in words)” value is given as “no significant inhibitory activity”. The “Toxicity after single-dose administration” value in data set [2] is given as “no signs of toxicity”. For the same compound, the “LOX and GSK3β activity” value in the data set on APP/PS1 mice was “inhibits LOX and GSK3β activity”. Further, in data set [3] (30 mg/kg), the “Time to cross the BBB after administration” value is “about half an hour”. The BBB penetration entry in data set [3] (rat, 30 and 60 mg/kg through the femoral vein) is given as “rapidly penetrated the BBB”. Further, the inhibition at 50 µM at chymotrypsin (baicalein 50 μM, mean ± SD, read-out: Inhibitory activity against Chymotrypsin) was found to be 8.42 ± 0.76%; on elastase (baicalein 50 μM, mean ± SD, read-out: Inhibitory activity against Elastase), 10.3 ± 1.04%; at human recombinant TACE (baicalein 50 μM, mean ± SD, read-out: Inhibitory activity against TACE), 8.31 ± 0.89%. For the same compound, the inhibition at 100 µM at chymotrypsin (baicalein 100 μM, mean ± SD, read-out: Inhibitory activity against Chymotrypsin) was 4.48 ± 0.76%; on elastase (baicalein 100 μM, mean ± SD, read-out: Inhibitory activity against Elastase), 9 ± 0.45%; on human recombinant TACE (baicalein 100 μM, mean ± SD, read-out: Inhibitory activity against TACE), 9.45 ± 0.71%. In addition, on chymotrypsin (up to 100 µM), the “Inhibitory activity against chymotrypsin (in words)” value is “no significant inhibitory activity”. Besides, in data set [1], the Antioxidant ability result is “most powerful antioxidant effect”. In the data set on Tg2576 mice, the Cognitive performance result was “significantly improves”. Moreover, on AChE, the “AChE Inhibition Type” value is listed as “Competitive”. Further, in data set [4], the “Brain-to-plasma ratio compared with baicalin” value is “twenty times higher”. Also, the Behavioral dysfunction entry in data set [5] was “improved”. In addition, on elastase (up to 100 µM), the “Inhibitory activity against elastase (in words)” value was “no significant inhibitory activity”. On human recombinant TACE (up to 100 µM), the “Inhibitory activity against TACE (in words)” value is recorded as “no significant inhibitory activity”.
